Where two headings read alike, the source gives them in different places.

Holding throughout (assay type): cell-based, human
In test [1] the test system is Nalm6 B-ALL cell line. Description: Cytotoxicity assay, Nalm6. The following applies: four days in culture, Alamar blue assay or automated microscopy, ± SD, three experiments. The gist of the method: (§1)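 Percent survival versus DMSO control after 4-day inhibitor exposure (1×10^−6 to 10 µM final), based on Alamar blue absorbance or automated microscopy cell counts.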
On the technique in general: The colour change of resazurin is a common sign of viable cells or microbes.

The test system of test [2] is NB4 APML cell line. Description: Cytotoxicity assay, NB4. As to conditions: four days in culture, Alamar blue assay or automated microscopy, ± SD, three experiments. In outline:
(§2)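 1×10^4 cells/well, Opti-MEM + 10% FBS; inhibitor 1×10^−6–10 µM final vs DMSO, triplicate; 4 d, 37°C, 5% CO2. Viability by Alamar blue (A570–620) or Celigo direct cell count; % survival = treated/control ×100.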

Test [3] relates to B1 B-ALL cell line. Description: Cytotoxicity assay, B1. As to conditions: four days in culture, Alamar blue assay or automated microscopy, ± SD, three experiments. In outline: as §1
The test system of test [4] is HL-60 RA APML cell line. Kind of test: Cytotoxicity assay, HL-60 RA. The following applies: APML cell line HL-60 RA, four days in culture, Alamar blue assay or automated microscopy, ± SD, three experiments. The gist of the method: as §2
Test [5] deals with UOCB1 B-ALL cell line. Kind of test: Cytotoxicity assay, UOCB1. As to conditions: four days in culture, Alamar blue assay or automated microscopy, ± SD, three experiments. In outline: as §2
The subject of test [6] is C1 B-ALL cell line. Description: Cytotoxicity assay, C1. As to conditions: four days in culture, Alamar blue assay or automated microscopy, ± SD, three experiments. In outline: as §1
Test [7] concerns Patient #4 infant leukemia primary cells. Kind of test: Cytotoxicity assay, primary sample Patient #4. As to conditions: four days in culture, Alamar blue assay or automated microscopy, one complete study. The gist of the method:
(§3)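 Ficoll-isolated primary leukemic white cells (1×10^4 per well) in Opti-MEM exposed in triplicate to Aurora kinase inhibitors at 1×10^−6 to 10 µM or DMSO for 4 days. Survival measured by Alamar blue absorbance (570–620 nm) or bright-field direct cell counting, as percent of vehicle control.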

For test [8], the system named is Normal Lymphocytes. Description: Cytotoxicity assay, normal lymphocytes. The following applies: normal lymphocytes (control for non-leukemia cytotoxicity), four days in culture, ± SD, three experiments.
Test [9] has as its system Molm13 AML cell line. Description: Cytotoxicity assay, Molm13. The following applies: four days in culture, Alamar blue assay or automated microscopy, ± SD, three experiments. The gist of the method:
as §2

Test [10] concerns Patient #1 B-ALL primary leukemia cells. Kind of test: Cytotoxicity assay, primary sample Patient #1. The following applies: four days in culture, Alamar blue assay or automated microscopy, one complete study. In outline: as §3
Test [11] has as its system Molt-3 T-ALL cell line. Description: Cytotoxicity assay, Molt-3. The following applies: T-ALL cell line Molt-3, four days in culture, Alamar blue assay or automated microscopy, ± SD, three experiments. The gist of the method:
as §2

In test [12] the test system is Patient #5 ALL/AML primary leukemia cells. Description: Cytotoxicity assay, primary sample Patient #5. The following applies: primary sample, four days in culture, Alamar blue assay or automated microscopy, one complete study, read-out: IC50, Patient #5 ALL/AML. In outline:
as §3

As for `O=C(Nc1c[nH]nc1-c1nc2ccc(CN3CCOCC3)cc2[nH]1)NC1CC1` [AT9283], the IC50 in [1] (Homo sapiens, NALM-6, 96 h) was determined as 6 ± 3 nM; in test [2] (Homo sapiens, 96 h) it was 60 ± 30 nM; in test [3] (Homo sapiens, 96 h), 60 ± 30 nM; in [4] (Homo sapiens, 96 h), 3 ± 2 nM; in test [5] (Homo sapiens, UoC-B1, 96 h), 0.08 nM; in [6] (Homo sapiens, 96 h), 0.6 nM. For the same compound, the IC50 in test [7] (Homo sapiens, 96 h) was determined as 5000 nM; in test [8] (Homo sapiens, Lymphocyte, 96 h), 9000 ± 1000 nM; in test [9] (Homo sapiens, MOLM-13, 96 h), 5 ± 3 nM; in [10] (Homo sapiens, 96 h), 3 nM; in [11] (Homo sapiens, 96 h), 0.4 nM; in test [12] (Homo sapiens, 96 h), 0.3 nM.

`CCN1CCN(C(=O)Cc2ccc(Nc3ncc(F)c(Nc4ccc(C(=O)Nc5ccccc5Cl)cc4)n3)cc2)CC1` [Aurora A Inhibitor I]: the IC50 in test [1] was found to be 400 ± 80 nM; in test [2] it was 700 ± 50 nM; in test [3] it was 700 ± 100 nM; in test [4] it was 1000 ± 600 nM; in test [5] it was 20 ± 9 nM; in [6], 900 ± 200 nM. In addition, the IC50 was 8000 nM in test [7]; 3000 ± 500 nM in [8]; 2000 ± 1000 nM in test [9]; 800 nM in test [10]; 300 ± 200 nM in test [11]; 6 nM in [12].

On to `CCS(=O)(=O)Nc1ccc2c(c1)/C(=C(/Nc1ccc(CN3CCCCC3)cc1)c1ccccc1)C(=O)N2` [Hesperadin], for which the IC50 in test [1] (Homo sapiens, NALM-6, 96 h) was 0.004 nM; in test [2] (Homo sapiens, 96 h), 4 ± 1 nM; in test [3] (Homo sapiens, 96 h), 0.007 nM; in test [4] (Homo sapiens, 96 h), 0.05 nM; in test [5] (Homo sapiens, UoC-B1, 96 h), below 0.001 nM; in test [6] (Homo sapiens, 96 h), 0.06 nM. In addition, the IC50 in test [7] (Homo sapiens, 96 h) is 2000 nM; in test [8] (Homo sapiens, Lymphocyte, 96 h), 2000 ± 1000 nM; in test [9] (Homo sapiens, MOLM-13, 96 h) it was 0.3 nM; in test [10] (Homo sapiens, 96 h) it was 0.04 nM; in test [11] (Homo sapiens, 96 h), below 0.001 nM; in test [12] (Homo sapiens, 96 h), 0.01 nM.
